Assay results taken from US9938262B2, “Benzamides” (Merck Patent GmbH, priority 2011, dated 2018).

Molecular target: T1, FSHR (Homo sapiens, UniProt P23945)
T1 construct: expressed in transfected cells; host or cells: CHO (Cho-FSHR-LUC-1-1-43)
Assay: EC50 of cyclic AMP production in CHO FSHR cells + EC20 FSH (Assay A)
Assay type: cell-based
Details: Table 1; for EC50: CHO FSHR cells + EC20 FSH, read-out: Assay A EC50 of cyclic AMP production; for activation at 5 µM: 1 h, effect relative to maximum response of the FSH standard
Procedure: Example 10: EC50 of Cyclic AMP Production in CHO FSHR Cells+EC20 FSH (Assay A)
2500 Cho-FSHR-LUC-1-1-43 cells were plated per well in 5 μl of phenol red free DMEM/F12+1% FBS. Cells were plated in 384 well, solid white low volume plates (Greiner 784075) by Multidrop. Cells were assayed by adding 100 μl of 2×EC20 FSH/IBMX in DMEM/F12+0.1% BSA) by Multidrop to 2 μl of test compound stamped in 384 well plates (compounds are diluted 1:50). The final FSH concentration was […], and the final IBMX concentration was 200 μM. The compound plate map was as follows: Column 1: 2 μl of DMSO; Column 2: 2 μl of DMSO; Columns 3-12 and 13-24: 2 μl of test compound, diluted 1:4 in 100% DMSO, or 2 μl of FSH, diluted 1:4 in DMEM/F12+0.1% BSA. The starting concentration for FSH was 50 nM (final concentration was 0.5 nM). […] 5 μl of compound+EC20 FSH mixture were transferred to cell plates (1:2 dilution into 5 μl of cell media) The plates were incubated at 37° C. for 1 h. 10 μl of mixed HTRF (CisBio #62AM4PEC) reagents were added per well and incubated at room temperature for 1 h. The plates were read on Envision using the cAMP HTRF—low volume 384 well protocol. The readout was the calculated fluorescence ratio (665 nm/620 nm). Values given in percent (%) indicate the percental effect (response) at a certain concentration of agonist relative to the maximum response of the FSH standard.

T1 sequence (P23945 18-695): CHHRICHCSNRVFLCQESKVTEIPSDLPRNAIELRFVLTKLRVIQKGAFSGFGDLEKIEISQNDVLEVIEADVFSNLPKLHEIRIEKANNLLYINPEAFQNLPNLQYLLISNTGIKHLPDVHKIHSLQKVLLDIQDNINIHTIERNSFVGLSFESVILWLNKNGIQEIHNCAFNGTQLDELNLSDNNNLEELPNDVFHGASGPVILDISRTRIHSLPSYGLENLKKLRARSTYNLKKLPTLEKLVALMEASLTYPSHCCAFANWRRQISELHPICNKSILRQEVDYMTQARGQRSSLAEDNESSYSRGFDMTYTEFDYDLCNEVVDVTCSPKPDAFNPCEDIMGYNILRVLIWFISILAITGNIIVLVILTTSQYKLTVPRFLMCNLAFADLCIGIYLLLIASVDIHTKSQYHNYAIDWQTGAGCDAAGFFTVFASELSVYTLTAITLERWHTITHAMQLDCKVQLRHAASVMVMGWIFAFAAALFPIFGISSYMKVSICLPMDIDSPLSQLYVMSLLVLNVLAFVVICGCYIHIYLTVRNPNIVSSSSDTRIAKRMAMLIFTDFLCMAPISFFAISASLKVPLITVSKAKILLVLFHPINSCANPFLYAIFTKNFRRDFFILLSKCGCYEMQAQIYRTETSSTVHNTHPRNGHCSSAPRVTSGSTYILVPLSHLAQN
T1 sequence (P01215 25-116 partner): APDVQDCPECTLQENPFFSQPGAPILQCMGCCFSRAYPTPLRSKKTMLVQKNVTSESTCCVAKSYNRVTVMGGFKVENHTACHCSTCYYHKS
T1 sequence (P01225 19-129 partner): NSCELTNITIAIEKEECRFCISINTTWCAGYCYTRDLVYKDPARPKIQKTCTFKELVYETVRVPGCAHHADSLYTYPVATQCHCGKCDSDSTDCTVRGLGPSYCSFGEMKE

Compound | EC50 [µM] | activation at 5 µM [%]
CCC(C)(C)C(=O)N(C)CCNC(=O)c1ccc(N2CCN(c3ccccc3C)CC2)c(NC(=O)c2ccco2)c1 [Compound 133, Furan-2-carboxylic acid [5-{2-[(2,2-dimethyl-butyryl)-methyl-amino]-ethylcarbamoyl}-2-(4-o-tolyl-piperazin-1-yl)-phenyl]-amide] | 0.1 to 1 | –
Cc1ccccc1N1CCN(c2ccc(C(=O)NCCN(C)C(=O)c3ccc4c(c3)OCO4)cc2NC(=O)c2ccco2)CC1 [Compound 134, Benzo[1,3]dioxole-5-carboxylic acid {2-[3-[(furan-2-carbonyl)-amino]-4-(4-o-tolyl-piperazin-1-yl)-benzoylamino]-ethyl}-methyl-amide] | 1 to 10 | –
Cc1ccccc1N1CCN(c2ccc(C(=O)NCCCN3CCCC3=O)cc2NC(=O)c2cc(C)c(C)o2)CC1 [Compound 138] | – | 41
CCc1ccc(C(=O)Nc2cc(C(=O)NCCCN3CCCC3=O)ccc2N2CCN(c3ccccc3C)CC2)o1 [Compound 140] | 0.1 to 1 | –
COc1ccc(C(=O)Nc2cc(C(=O)NCCCN3CCCC3=O)ccc2N2CCN(c3ccccc3C)CC2)o1 [Compound 141] | 0.1 to 1 | –
Cc1ccc(C(=O)Nc2cc(C(=O)N[C@@H]3CCN(C(=O)OC(C)(C)C)C3)ccc2N2CCN(c3ccccc3C)CC2)o1 [Compound 142, (R)-3-[3-[(5-Methyl-furan-2-carbonyl)-amino]-4-(4-o-tolyl-piperazin-1-yl)-benzoylamino]-pyrrolidine-1-carboxylic acid tert-butyl ester] | 1 to 10 | –
Cc1ccccc1N1CCN(c2ccc(C(=O)NCCCN3CCCC3=O)cc2NC(=O)c2cnoc2C(C)C)CC1 [Compound 145] | – | 16
Cc1ccccc1N1CCN(c2ccc(C(=O)NCCCN3CCCC3=O)cc2NC(=O)c2cccc(O)c2)CC1 [Compound 146] | > 10 | –
Cc1ccccc1N1CCN(c2ccc(C(=O)NCCCn3cccc3)cc2NC(=O)c2ccco2)CC1 [Compound 148] | 0.1 to 1 | –
Cc1ccccc1N1CCN(c2ccc(C(=O)NCCCn3ccc4ccccc43)cc2NC(=O)c2ccco2)CC1 [Compound 149] | – | 24
Cc1ccccc1N1CCN(c2ccc(C(=O)NCC(=O)NC3CCCC3)cc2NC(=O)c2ccco2)CC1 [Compound 151] | 0.1 to 1 | –
Cc1ccccc1N1CCN(c2ccc(C(=O)NCCCc3ccncc3)cc2NC(=O)c2ccco2)CC1 [Compound 153] | 0.1 to 1 | –
Cc1ccccc1N1CCN(c2ccc(C(=O)NCC3(CN4CCCC4)CC3)cc2NC(=O)c2ccco2)CC1 [Compound 154] | 1 to 10 | –
Cc1ccccc1N1CCN(c2ccc(C(=O)NCCCN3C(=O)CN(C)C3=O)cc2NC(=O)c2ccco2)CC1 [Compound 156] | 0.1 to 1 | –
Cc1ccccc1N1CCN(c2ccc(C(=O)NCCC3C[C@H]4CC[C@@H]3C4)cc2NC(=O)c2ccco2)CC1 (some centres unmarked) [Compound 157] | 0.1 to 1 | –
Cc1ccccc1N1CCN(c2ccc(C(=O)NCCCN3CCCC3=O)cc2NC(=O)c2ncccc2F)CC1 [Compound 160] | 1 to 10 | –
Cc1ccccc1N1CCN(c2ccc(C(=O)NCCCN3CCCC3=O)cc2NC(=O)c2ccc(F)cc2F)CC1 [Compound 161] | 0.1 to 1 | –
Cc1ccc(C(=O)Nc2cc(C(=O)NCCCN3CCCC3=O)ccc2N2CCN(c3ccccc3C)CC2)s1 [Compound 162] | 0.1 to 1 | –
Cc1ccccc1N1CCN(c2ccc(C(=O)NCCCN3CCCC3=O)cc2NC(=O)c2cccc(C(N)=O)c2)CC1 [Compound 163] | – | 8
CC(=O)Nc1ccc(C(=O)Nc2cc(C(=O)NCCCN3CCCC3=O)ccc2N2CCN(c3ccccc3C)CC2)o1 [Compound 164] | 1 to 10 | –
Cc1ccc(C(=O)Nc2cc(C(=O)NCCCN3CCCC3=O)ccc2N2CCC(c3ccccc3C)CC2)o1 [Compound 165, 5-Methyl-furan-2-carboxylic acid [5-[3-(2-oxo-pyrrolidin-1-yl)-propylcarbamoyl]-2-(4-o-tolyl-piperidin-1-yl)-phenyl]-amide] | > 10 | –

Compound | EC50 [µM] | activation at 5 µM [%]
COc1ccccc1N1CCN(c2ccc(C(=O)NCCCN3CCCC3=O)cc2NC(=O)c2ccco2)CC1 [Compound 166] | – | 20
Cc1ccc(C(=O)Nc2cc(C(=O)NCCCN3CCCC3=O)ccc2N2CCN(c3ccccc3)CC2)o1 [Compound 167, 5-Methyl-furan-2-carboxylic acid [5-[3-(2-oxo-pyrrolidin-1-yl)-propylcarbamoyl]-2-(4-phenyl-piperazin-1-yl)-phenyl]-amide] | 1 to 10 | –
Cc1ccc(C(=O)Nc2cc(C(=O)NCc3cccc(Br)c3)ccc2N2CCN(c3ccccc3C)CC2)o1 [Compound 170] | – | 32
COc1ccc(CNC(=O)c2ccc(N3CCN(c4ccccc4C)CC3)c(NC(=O)c3ccc(C)o3)c2)cc1OC [Compound 171, 5-Methyl-furan-2-carboxylic acid [5-(3,4-dimethoxy-benzylcarbamoyl)-2-(4-o-tolyl-piperazin-1-yl)-phenyl]-amide] | 1 to 10 | –
COc1ccc(-c2c[nH]nc2CNC(=O)c2ccc(N3CCN(c4ccccc4C)CC3)c(NC(=O)c3ccc(C)o3)c2)cc1 [Compound 172, 5-Methyl-furan-2-carboxylic acid [5-{[4-(4-methoxy-phenyl)-1H-pyrazol-3-ylmethyl]-carbamoyl}-2-(4-o-tolyl-piperazin-1-yl)-phenyl]-amide] | 1 to 10 | –
COc1ccccc1N1CCN(c2ccc(C(=O)NCCCN3CCCC3=O)cc2NC(=O)c2ccc(C)o2)CC1 [Compound 173, 5-Methyl-furan-2-carboxylic acid {2-[4-(2-methoxy-phenyl)-piperazin-1-yl]-5-[3-(2-oxo-pyrrolidin-1-yl)-propylcarbamoyl]-phenyl}-amide] | 1 to 10 | –
Cc1ccc(C(=O)Nc2cc(C(=O)NCCN3CCS(=O)(=O)CC3)ccc2N2CCN(c3ccccc3C)CC2)o1 [Compound 174, 5-Methyl-furan-2-carboxylic acid [5-[2-(1,1-dioxo-1 lambda*6*-thiomorpholin-4-yl)ethylcarbamoyl]-2-(4-o-tolyl-piperazin-1-yl)-phenyl]-amide] | 1 to 10 | –
Cc1ccc(C(=O)Nc2cc(C(=O)NC3CCN(C(=O)OC(C)(C)C)CC3)ccc2N2CCN(c3ccccc3C)CC2)o1 [Compound 175, 4-[3-[(5-methyl-furan-2-carbonyl)-amino]-4-(4-o-tolyl-piperazin-1-yl)-benzoylamino]-piperidine-1-carboxylic acid tert-butyl ester] | 1 to 10 | –
Cc1ccccc1N1CCN(c2ccc(C(=O)NCCCN3CCCC3=O)cc2NC(=O)C(C)(C)C)CC1 [Compound 177, 3-(2,2-Dimethyl-propionylamino)-N-[3-(2-oxo-pyrrolidin-1-yl)-propyl]-4-(4-o-tolyl-piperazin-1-yl)-benzamide] | 1 to 10 | –
Cc1ccccc1N1CCN(c2ccc(C(=O)NCCCN3CCCC3=O)cc2NC(=O)c2nc(Br)cs2)CC1 [Compound 178] | 1 to 10 | –
Cc1ccccc1N1CCN(c2ccc(C(=O)NCCCN3CCCC3=O)cc2NC(=O)c2ncsc2C)CC1 [Compound 179] | 0.1 to 1 | –
Cc1ccccc1N1CCN(c2ccc(C(=O)NCCC(C)N3CCCC3)cc2NC(=O)c2ccco2)CC1 (centres unmarked) [Compound 181] | 1 to 10 | –
Cc1ccc(C(=O)Nc2cc(C(=O)NCCc3c[nH]cn3)ccc2N2CCN(c3ccccc3C)CC2)o1 [Compound 185, 5-Methyl-furan-2-carboxylic acid [5-[2-(1H-imidazol-4-yl)-ethylcarbamoyl]-2-(4-o-tolyl-piperazin-1-yl)-phenyl]-amide] | 1 to 10 | –
Cc1cccc(C(=O)Nc2cc(C(=O)NCCCN3CCCC3=O)ccc2N2CCN(c3ccccc3C)CC2)n1 [Compound 186, 6-Methyl-pyridine-2-carboxylic acid [5-[3-(2-oxo-pyrrolidin-1-yl)-propylcarbamoyl]-2-(4-o-tolyl-piperazin-1-yl)-phenyl]-amide] | 1 to 10 | –
Cc1ccccc1N1CCN(c2ccc(C(=O)N[C@H]3O[C@@H](CO)[C@@H]4OC(C)(C)O[C@@H]43)cc2NC(=O)c2ccco2)CC1 [Compound 191] | 0.1 to 1 | –
Cc1ccccc1N1CCN(c2ccc(C(=O)NCCCN)cc2NC(=O)c2ccco2)CC1 [Compound 192] | 0.1 to 1 | –
Cc1ccc(C(=O)Nc2cc(C(=O)NCCCN3CCCC3=O)ccc2N2CCCN(c3ccccc3C)CC2)o1 [Compound 194, 5-Methyl-furan-2-carboxylic acid [5-[3-(2-oxo-pyrrolidin-1-yl)-propylcarbamoyl]-2-(4-o-tolyl-[1,4]diazepan-1-yl)-phenyl]-amide] | 1 to 10 | –
Cc1ccc(C(=O)Nc2cc(C(=O)NC3CC3)ccc2N2CCN(c3ccccc3C)CC2)o1 [Compound 195, 5-Methyl-furan-2-carboxylic acid [5-cyclopropylcarbamoyl-2-(4-o-tolyl-piperazin-1-yl)-phenyl]amide] | 1 to 10 | –
Cc1ccc(C(=O)Nc2cc(C(=O)NCCCCCCNC(=O)OC(C)(C)C)ccc2N2CCN(c3ccccc3C)CC2)o1 [Compound 196] | – | 22
Cc1ccccc1N1CCN(c2ccc(C(=O)NCCCN3CCCC3=O)cc2NC(=O)c2cnc(Cl)s2)CC1 [Compound 197] | 1 to 10 | –
